These results are taken from patent US20190127413A1, “Compositions and Methods for Non-Toxic Delivery of Antiprogestins” (Repros Therapeutics Inc., priority 2010, published 2019).

Series [1] is described as follows: Pharmacokinetic studies on participating clinical trial subjects, oral CDB-4124. The conditions noted are these: for maximum concentration for the 12.5 mg dose as percentage of the 50 mg dose: oral CDB-4124, parent and mono-demethylated metabolite. The format is in vivo, human. As to the method:
(§1) Pharmacokinetic studies performed on participating subjects detected a high Cmax and a Tmax at 1-2 hours following administration. […] Metabolism of CDB-4124 by the liver provides the opportunity for liver damage and greatly reduces the concentration of the antiprogestin before it reaches the systemic circulation. Thus, alternative routes of administration of antiprogestins that avoid first pass metabolism such as, without limitation, intravenous, intramuscular, and sublingual, should allow antiprogestins to be absorbed directly into the systemic circulation and thereby provide a method for treating progestone-dependent conditions while avoiding liver toxicity. Administration routes which avoid first pass metabolism may also require less drug per dose to achieve the same therapeutic benefit relative to oral administration.

The target in series [2] is T1, glucocorticoid receptor (Homo sapiens, UniProt P04150).
T1 sequence (P04150 1-777): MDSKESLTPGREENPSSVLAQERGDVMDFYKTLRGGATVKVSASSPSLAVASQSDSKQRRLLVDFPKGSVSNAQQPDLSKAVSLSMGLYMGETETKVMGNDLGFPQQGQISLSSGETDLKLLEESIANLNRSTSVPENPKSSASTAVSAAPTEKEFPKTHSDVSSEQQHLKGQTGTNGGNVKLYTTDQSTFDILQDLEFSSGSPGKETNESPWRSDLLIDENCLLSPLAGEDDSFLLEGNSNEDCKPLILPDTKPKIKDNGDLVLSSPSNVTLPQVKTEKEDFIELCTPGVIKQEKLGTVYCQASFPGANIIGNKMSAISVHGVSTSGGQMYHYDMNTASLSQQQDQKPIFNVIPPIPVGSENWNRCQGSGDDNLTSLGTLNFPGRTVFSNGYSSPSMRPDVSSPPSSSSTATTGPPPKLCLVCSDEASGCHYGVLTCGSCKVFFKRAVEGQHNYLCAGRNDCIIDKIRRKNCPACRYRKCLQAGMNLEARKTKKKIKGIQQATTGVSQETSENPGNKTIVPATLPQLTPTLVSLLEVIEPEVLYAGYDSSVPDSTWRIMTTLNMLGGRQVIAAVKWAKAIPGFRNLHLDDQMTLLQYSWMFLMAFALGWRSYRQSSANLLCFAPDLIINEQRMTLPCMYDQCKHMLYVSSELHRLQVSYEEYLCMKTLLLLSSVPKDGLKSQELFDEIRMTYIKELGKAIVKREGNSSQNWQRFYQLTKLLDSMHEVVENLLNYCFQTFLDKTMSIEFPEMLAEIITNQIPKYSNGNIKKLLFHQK
To be noted: cited from earlier work.

Series [3] is described as follows: Oral versus vaginal pharmacokinetics in beagles. The format is in vivo. To be noted: 25 mg; for metabolism after peak plasma concentration: oral, micronized powder; for metabolism / peak plasma concentration (Cmax): vaginal suppository. The protocol: Beagles were administered 25 mg of CDB-4124 or CDB-4453 (the monodemethylated metabolite of CDB-4124) formulated as either a micronized powder or a vaginal suppository. […] Moreover, systemic exposure of the drug is much lower when administered locally (compare AUC for CDB-4124 and CDB-4453 when administered vaginally vs. orally).

The nature of series [4]: Cmax after vaginal administration extrapolated from beagles to humans. The format is in vivo. The conditions noted are these: for predicted Cmax for vaginal administration as percentage of the same dose administered orally: humans. As to the method: The maximum circulating concentrations (Cmax) of CDB-4124 obtained following vaginal administration to beagles were extrapolated to humans for the 12.5 mg, 25 mg and 50 mg doses actually administered during the Phase III clinical studies.

For series [5], the system named is progesterone-induced endometrial proliferation. Put plainly: Anti-Clauberg study, subcutaneous versus oral. It counts as in vivo, rabbits. From the text: To determine whether the low circulating levels of CDB-4124 when administered locally could have any impact predictive of efficacy, an anti-Clauberg study was run in which immature estradiol-primed rabbits were coadministered progesterone and various doses of CDB-4124 by either subcutaneous or oral administration. At least 3 different highly trained individuals evaluated the rabbit uterus for glandular growth, for complexity and overall progesterone-induced “development”. The inhibition (by percentage) of progesterone-induced endometrial proliferation at each dose was assayed. […] However, maximal inhibition required a 8-fold increase in dosage when administered orally (i.e. 8 mg/kg). Importantly 8 mg/kg corresponds closely to the 50 mg/day dose of CDB-4124 administered to the female subjects described in Example 4.

Series [6] concerns primary cultures of human and animal hepatocytes. The series is described as follows: Metabolism in primary cultures of hepatocytes. The conditions noted are these: primary hepatocyte cultures. The format is in vitro ADME. The protocol:
as §1

Series [7] can be described thus: Clinical trials of daily oral CDB-4124 (Proellex) capsules: liver toxicity, liver enzymes. It counts as in vivo, human. The protocol: The maximum concentrations of CDB-4124 and its mono-demethylated metabolite (CDB-4453) for the 12.5 mg dose were 25% of the 50 mg dose. All liver toxicities resolved in those women that returned for safety follow-ups, including those subjects that developed liver-associated serious adverse effects (SAEs).
To date, over 600 patients, including women with confirmed cases of endometriosis or uterine fibroids, have participated in double blind and open label clinical trials in which patients were administered daily oral capsules containing doses of 12.5 mg, 25 mg or 50 mg CDB-4124 (Proellex) for over one month. Of these patients, about 500 received Proellex and about 130 received a placebo. Of the patients receiving Proellex, about 190 received a dose of 50 mg CDB-4124 per day, about 260 received a dose of 25 mg CDB-4124 per day and about 55 received a dose of 12.5 mg per day.
Liver enzymes were frequently monitored in participating subjects. The liver enzyme level at which the clinical trials would be discontinued was set at an increase in liver aminotransferases greater than, or equal to three times the Upper Limit of Normal (≥3×ULN).
Of the nine subjects with a confirmed increase in liver enzymes ≥3×ULN, seven were severe enough elevations to be reported to the FDA as SAEs. One of these seven subjects had been receiving a dose of 25 mg CDB-4124 per day; the remaining six subjects had been receiving a dose of 50 mg CDB-4124 per day. Liver enzymes ≥3×ULN persisted in five of the nine subjects with a confirmed increase in liver enzymes ≥3×ULN. These five subjects had previously been dosed with the 50 mg dose. One of these subjects is receiving oral medication for treatment of their liver condition. Clinical trials involving CDB-4124 at all doses were voluntarily suspended as a result of these SAEs and were subsequently placed on clinical hold by the United States Food and Drug Administration for safety reasons.

The test system of series [8] is progesterone-induced endometrial proliferation. Put plainly: Anti-Clauberg study, vaginal versus oral (McPhail index). The format is in vivo, rabbits. The protocol:
Another anti-Clauberg study was run in which immature estradiol-primed rabbits were administered progesterone alone (vehicle control) or were co-administered progesterone and three doses of CDB-4124 by either vaginal or oral administration. The inhibition of progesterone-induced endometrial proliferation at each dose was assayed. FIG. 3 illustrates the decrease in the McPhail index following increasing doses of CDB-4124 administered by either route. Maximal inhibition (i.e. a decrease in the McPhail index to 1.5) occurred at 0.2 mg/kg CDB-4124 when administered vaginally, compared to 0.8 mg/kg when administered orally.

“Also recorded” adds a separate entry of the source.

Take `CNc1ccc([C@H]2C[C@@]3(C)[C@@H](CC[C@]3(OC(C)=O)C(=O)COC)[C@@H]3CCC4=CC(=O)CCC4=C32)cc1` [CDB-4453, 21-methoxy-17α-acetoxy-11β-(4-N-methylaminophenyl)-19-norpregna-4,9-diene-3,20-dione]: in series [1], the “maximum concentration for the 12.5 mg dose as percentage of the 50 mg dose” value came out at 25%. For the same compound, the “anti-glucocorticoid activity relative to parent CDB-4124” value in series [2] is listed as “even lower anti-glucocorticoid activity than its parent”. Moreover, in series [3], the “systemic exposure (AUC), local (vaginal) versus oral” value is “much lower”; the “metabolism after peak plasma concentration” value is given as “rapidly metabolized”; the metabolism entry is “metabolized slowly”; the “peak plasma concentration (Cmax)” value was “relatively low”.

As a reminder, the Tmax is the time at which the peak concentration occurs. As for `COCC(=O)[C@@]1(OC(C)=O)CC[C@H]2[C@@H]3CCC4=CC(=O)CCC4=C3[C@@H](c3ccc(N(C)C)cc3)C[C@@]21C` [CDB-4124, 21-methoxy-17α-acetoxy-11β-(4 N, N-dimethylaminophenyl)-19-norpregna-4,9-diene-3,20-dione], the “predicted Cmax for vaginal administration as percentage of the same dose administered orally” value in series [4] (12.5 mg dose) is given as “approximately 6.5%”. Besides, the “predicted Cmax for vaginal administration as percentage of the same dose administered orally” value in series [4] (50 mg dose) is “approximately 2%”. Further, the “Cmax with 12.5 mg vaginal dose as percentage of that with 50 mg oral dose” value in series [4] (in vivo, po) was 2%. In addition, in series [5] (oral), the “dose at which maximal inhibition of progesterone-induced endometrial proliferation was observed” value is 8 mg/kg. For the same compound, the “increase in dosage required for maximal inhibition, oral versus subcutaneous” value in series [5] (rabbit, in vivo) amounted to 8 fold. Moreover, the “dose at which maximal inhibition of progesterone-induced endometrial proliferation was observed” value in series [5] (subcutaneous) is recorded as “less than 1 mg/kg”. In addition, the “monodemethylated metabolite detected (first pass metabolism)” value in series [1] (after oral ingestion of CDB-4124) is “Large quantities; also recorded: Large amounts”. For the same compound, the Cmax result in series [1] (following oral administration) is “high”. Also, in series [1] (human, in vivo, following oral administration), the Tmax is 1 to 2 h. In addition, the “maximum concentration for the 12.5 mg dose as percentage of the 50 mg dose” value in series [1] is 25%. The “production of the mono-demethylated metabolite” value in series [6] is listed as “rapidly produce the mono-demethylated metabolite”. For the same compound, in series [7] (25 mg CDB-4124 per day), the “subjects with liver enzyme elevation reported as SAE” value is given as “One”. Moreover, in series [7] (50 mg CDB-4124 per day), the “subjects with liver enzyme elevation reported as SAE” value is “six”. Further, the “subjects in whom liver enzymes ≥3×ULN persisted” value in series [7] (50 mg dose) was “five”. Moreover, in series [7] (all doses), the “subjects with elevations severe enough to be reported to the FDA as SAEs” value is reported as “seven” and the “subjects with increase in liver enzymes ≥3×ULN confirmed by repeat test in 48 hours” value was “nine”. In series [7] (all doses, first test), the “subjects with increase in liver enzymes ≥3×ULN” value was “thirteen”. In series [7] (oral, 12.5 mg, versus placebo), the “adverse liver toxicity signals” value is “no adverse liver toxicity signals different from placebo”. Also, in series [7] (oral, 25 mg/day), the “frequency and intensity of liver toxicity effects relative to 50 mg/day” value is “significantly lower in frequency and intensity”. For the same compound, the “women exhibiting severe liver toxicity” value in series [7] (oral, 50 mg/day, Phase III clinical studies) was 3-4%. In addition, the “liver toxicity on chronic daily administration” value in series [7] (therapeutic oral dosages, patients) is on record as “exhibit liver toxicity”. In series [3], the “systemic exposure (AUC), local (vaginal) versus oral” value was “much lower”; the “metabolism after peak plasma concentration” value is recorded as “rapidly metabolized”; the metabolism entry is “metabolized slowly”; the “peak plasma concentration (Cmax)” value was “relatively low”. The “dose at which maximal inhibition occurred” value in series [8] (oral) stood at 0.8 mg/kg. In series [8] (vaginal), the “dose at which maximal inhibition occurred” value came to 0.2 mg/kg. The “McPhail index at maximal inhibition” value in series [8] (vaginal 0.2 mg/kg or oral 0.8 mg/kg) is 1.5.
